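Five concentrations, 48 hours, 96-well plates. The concentration for 50% growth inhibition is given as GI50. TGI: total growth inhibition.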
Assays:
Assay in all cases: growth of human tumour cells (NCI), 48 h
[1] = system: SK-OV-3 ovarian
[2] = system: SNB-19 CNS
[3] = system: DU-145 prostate
[4] = system: K-562 leukemia
[5] = system: IGROV1 ovarian
[6] = system: MCF7 breast
[7] = system: UO-31 renal
[8] = system: OVCAR-4 ovarian
[9] = system: HOP-62 NSCLC
[10] = system: TK-10 renal
[11] = system: SNB-75 CNS
[12] = system: U251 CNS
[13] = system: NCI-H522 lung
[14] = system: HOP-92 NSCLC
[15] = system: OVCAR-5 ovarian
[16] = system: A498 renal
[17] = system: ACHN renal
[18] = system: CCRF-CEM leukemia
[19] = system: SF-539 CNS
[20] = system: A549 NSCLC
[21] = system: COLO 205 colon
[22] = system: SK-MEL-5 melanoma
[23] = system: SF-295 CNS
[24] = system: SR leukemia
[25] = system: OVCAR-8 ovarian
[26] = system: SW-620 colon
[27] = system: MOLT-4 leukemia
[28] = system: HCT-116 colon
[29] = system: NCI-H460 lung
[30] = system: LOX IMVI melanoma
[31] = system: NCI/ADR-RES ovarian
[32] = system: CAKI-1 renal
[33] = system: HCC-2998 colon
[34] = system: MDA-MB-435
[35] = system: SK-MEL-2 melanoma
[36] = system: SN12C renal
[37] = system: HT29 colon
[38] = system: M14 melanoma
[39] = system: UACC-257 melanoma
[40] = system: SK-MEL-28 melanoma
[41] = system: UACC-62 melanoma
[42] = system: BT-549 breast
[43] = system: MDA-MB-231 breast
[44] = system: SF-268 CNS
[45] = system: KM12 colon
[46] = system: HL-60(TB) leukemia
[47] = system: HS 578T breast
[48] = system: 786-0 renal
[49] = system: NCI-H226 lung
[50] = system: HCT-15 colon
[51] = system: PC-3 prostate
[52] = system: MALME-3M melanoma
[53] = system: T-47D breast
[54] = system: EKVX NSCLC
[55] = system: OVCAR-3 ovarian
[56] = system: RPMI-8226 leukemia
[57] = system: MDA-MB-468 breast
[58] = system: NCI-H23 lung

CC12OOC(C)(OO1)C2CCC(=O)OCCNc1ccnc2cc(Cl)ccc12 (stereo unspecified)
GI50 [1]: > 18.3 µM
TGI [1]: > 18.3 µM
GI50 [2]: > 18.3 µM
TGI [2]: > 18.3 µM
GI50 [3]: 3.47 µM
TGI [3]: 6.32 µM
GI50 [4]: 4.11 µM
TGI [4]: 11.8 µM
GI50 [5]: 6.59 µM
TGI [5]: > 18.3 µM
GI50 [6]: 7.76 µM
TGI [6]: > 18.3 µM
GI50 [7]: 2.57 µM
TGI [7]: 4.94 µM
GI50 [8]: 3.5 µM
TGI [8]: 7.42 µM
GI50 [9]: > 18.3 µM
TGI [9]: > 18.3 µM
GI50 [10]: 2.69 µM
TGI [10]: 6.03 µM
GI50 [11]: > 18.3 µM
TGI [11]: > 18.3 µM
GI50 [12]: > 18.3 µM
TGI [12]: > 18.3 µM
GI50 [13]: 3.23 µM
TGI [13]: 6.53 µM
GI50 [14]: 2.72 µM
TGI [14]: 7.92 µM
GI50 [15]: > 18.3 µM
TGI [15]: > 18.3 µM
GI50 [16]: > 18.3 µM
TGI [16]: > 18.3 µM
GI50 [17]: 1.59 µM
TGI [17]: 3.81 µM
GI50 [18]: 5.36 µM
TGI [18]: 17.5 µM
GI50 [19]: > 18.3 µM
TGI [19]: > 18.3 µM
GI50 [20]: 4.17 µM
TGI [20]: 12.2 µM
GI50 [21]: 3.57 µM
TGI [21]: 10.8 µM
GI50 [22]: > 18.3 µM
TGI [22]: > 18.3 µM
GI50 [23]: > 18.3 µM
TGI [23]: > 18.3 µM
GI50 [24]: 3.35 µM
TGI [24]: 8.03 µM
GI50 [25]: 16.8 µM
TGI [25]: > 18.3 µM
GI50 [26]: 5.83 µM
TGI [26]: > 18.3 µM
GI50 [27]: 16.8 µM
TGI [27]: > 18.3 µM
GI50 [28]: 3.59 µM
TGI [28]: 8.67 µM
GI50 [29]: 6.3 µM
TGI [29]: > 18.3 µM
GI50 [30]: 2.87 µM
TGI [30]: 5.39 µM
GI50 [31]: > 18.3 µM
TGI [31]: > 18.3 µM
GI50 [32]: 3.21 µM
TGI [32]: 5.96 µM
GI50 [33]: > 18.3 µM
TGI [33]: > 18.3 µM
GI50 [34]: 18.3 µM
TGI [34]: > 18.3 µM
GI50 [35]: > 18.3 µM
TGI [35]: > 18.3 µM
GI50 [36]: > 18.3 µM
TGI [36]: > 18.3 µM
GI50 [37]: 3.46 µM
TGI [37]: 8.62 µM
GI50 [38]: 10.8 µM
TGI [38]: > 18.3 µM
GI50 [39]: > 18.3 µM
TGI [39]: > 18.3 µM
GI50 [40]: > 18.3 µM
TGI [40]: > 18.3 µM
GI50 [41]: > 18.3 µM
TGI [41]: > 18.3 µM
GI50 [42]: > 18.3 µM
TGI [42]: > 18.3 µM
GI50 [43]: > 18.3 µM
TGI [43]: > 18.3 µM
GI50 [44]: > 18.3 µM
TGI [44]: > 18.3 µM
GI50 [45]: > 18.3 µM
TGI [45]: > 18.3 µM
GI50 [46]: > 18.3 µM
TGI [46]: > 18.3 µM
GI50 [47]: > 18.3 µM
TGI [47]: > 18.3 µM
GI50 [48]: 4.95 µM
TGI [48]: 16.5 µM
GI50 [49]: 4.19 µM
TGI [49]: 14.2 µM
GI50 [50]: 2.87 µM
TGI [50]: 5.47 µM
GI50 [51]: > 18.3 µM
TGI [51]: > 18.3 µM
GI50 [52]: 3.1 µM
TGI [52]: 5.98 µM
GI50 [53]: > 18.3 µM
TGI [53]: > 18.3 µM
GI50 [54]: > 18.3 µM
TGI [54]: > 18.3 µM
GI50 [55]: 3.71 µM
TGI [55]: 7.21 µM
GI50 [56]: 8.81 µM
TGI [56]: > 18.3 µM
GI50 [57]: 2.87 µM
TGI [57]: 7.73 µM
GI50 [58]: > 18.3 µM
TGI [58]: > 18.3 µM

From PubChem BioAssay (NCI)
